“And” between values parts separate entries of the source, which are not always exact repeats. Identical values can stand only once. Like-named read-outs stand apart in the source and are kept apart here.
What was measured:
male Swiss-Webster mice [1] = assay: Rotarod impairment test before MES testing; type: in vivo, mouse; settings: 300 mg/kg p.o.
Experimental: (§1) Test compounds (Compound S, Compound W, the S-enantiomer of Compound AA, the R-enantiomer of Compound AA, Compound HH, Compound JJ, and Compound MM) were dissolved in saline containing 0.5% methylcellulose. To determine time to peak effect, 300 mg/kg of each of the test compounds was suspended in 0.5% methylcellulose in saline and administered orally to a group of 20 mice. For comparative purposes, isovaleramide was also tested. At various times (0.25, 0.5, 1, 2, and 4 hours) after p.o. administration, individual mice were placed on the rotarod and tested for their ability to maintain balance on a rotating (6 rpm) 2.5-cm diameter knurled rod for 60 seconds. Mice that fell three times in this 60-second trial were considered impaired.

male Swiss-Webster mice [2] = assay: Maximal electroshock (MES)-induced tonic extension seizure test; type: in vivo, mouse; settings: for # P/# T (protected/tested): 300 mg/kg p.o.
Experimental: In the MES test, a substance is administered orally (p.o.) and is tested for efficacy against maximal electroshock (MES)-induced tonic extension seizures. Adult male Swiss-Webster mice (each 20-25 g of body weight) were used. The mice were housed in Association for the Assessment and Accreditation of Laboratory Animal Care-approved facilities under a constant 12-hour light/dark cycle with a constant temperature of 21° C.-23° C. and a relative humidity of 30% to 50%. All animals were permitted free access to standard laboratory chow (Prolab RMH 3000; PMI Nutrition International, LLC, Brentwood, Mo.) and water, except when removed from their home cages for testing. All mice were handled in a manner consistent with the recommendations in the National Research Council Publication Guide for the Care and Use of Laboratory Animals.
as §1
Following rotarod testing, the mice were tested in the maximal electroshock (MES)-induced tonic extension seizures test. For this test, a drop of electrolyte solution (0.5% butacaine sulfate in 0.9% saline) was placed on the eyes of each mouse prior to placement of corneal electrodes. The mice were restrained by gripping the loose skin on their dorsal surface and saline-coated corneal electrodes were held lightly against the two corneas. Each mouse received an electrical stimulation (50 mAmp, 50 Hz current, 0.2 sec) delivered through a silver-coated corneal electrode using an electroshock machine as originally described by Woodbury and Davenport (Arch Int. Pharmacodyn. Ther., 92:97-104, 1952). […] A tonic seizure was defined as a hindlimb extension in excess of 90 degrees from the plane of the body. Results were treated in a quantal manner. […] ED50's (the effective dose at which 50% of the mice were protected) were determined for Compounds W and HH by administering various doses (30, 100, 300 mg/kg) at the previously determined time to peak effect, as shown in Table 11.

[3] = test system: Frings audiogenic seizure-susceptible mouse; assay: Frings audiogenic seizure assay (protection against sound-induced tonic hindlimb extension); type: in vivo; settings: for Seizure Score ± S.E.M.: score 1-5; for ED50: Mus musculus, po
Experimental: The anticonvulsant activity of compound S ((S)-(+)-2,2-dimethylcyclopropane-carboxamide) was tested using the Frings audiogenic seizure-susceptible mouse. […] Compound S, which is a solution at 300 mg/kg and a suspension at 600 mg/kg, was administered to the mice at the doses indicated in Tables 1-3. Compound S was obtained from Sigma-Aldrich Chemical Co. (Aldrich catalog number: 43,463-9).
At the time of testing, individual mice were placed into a round Plexiglas chamber and exposed to a sound stimulus of 110 decibels, 11 kHz, for 20 seconds. Mice not displaying tonic hindlimb extensions upon exposure to the sound stimulus were considered protected. In addition, the seizure score for each mouse was recorded as: (1) running for less than 10 seconds; (2) running for greater than 10 seconds; (3) clonic activity of limbs and/or vibrissae; (4) forelimb extension/hindlimb flexion; and (5) hindlimb extension. The average seizure score was calculated for each group of mice used in the dose-response study.
The anticonvulsant activity of compounds I, W, X, and AA was tested using the Frings audiogenic seizure-susceptible mouse model as described in Example 23. […] The therapeutic index relates to separation between therapeutic efficacy and CNS toxicity as measured by motor impairment in the rotarod performance test.

Frings mice = assay: Rotarod test of motor impairment (toxicity) in the Frings study; type: in vivo; settings: for separation between efficacy and CNS toxicity: as measured by rotarod impairment; for Therapeutic Index: Frings, mouse, in vivo, po
Experimental: (§2) At each dose, the mice were also tested on a rotarod for testing of motor impairment (toxicity). Testing for motor impairment on the rotarod involved placing a mouse for a three-minute trial period on a one-inch diameter rod rotating at six revolutions per minute. If the mouse fell off of the rotating rod three times within the three-minute time period, the dose was considered a toxic response.
(§3) The therapeutic index relates to separation between therapeutic efficacy and CNS toxicity as measured by motor impairment in the rotarod performance test.

[4] = as above; type: in vivo; settings: Frings, mouse, in vivo, po, rotarod, Table 4
Experimental: as §2, §3

[5] = humans, cited from earlier work
[6] = Table 5, read-out: ED50 Oral Administration

C[C@H](C(N)=O)C(C)(C)C [Compound MM]
# I/# T (impaired/tested) (male Swiss-Webster mice [1]; 0.25 hours): 2/4
# I/# T (impaired/tested) (male Swiss-Webster mice [1]; 0.5 hours): 3/4
# I/# T (impaired/tested) (male Swiss-Webster mice [1]; 1 hour): 4/4
# I/# T (impaired/tested) (male Swiss-Webster mice [1]; 2 hours): 3/4
# I/# T (impaired/tested) (male Swiss-Webster mice [1]; 4 hours): 3/4
# P/# T (protected/tested) (male Swiss-Webster mice [2]; 0.25 hours): 0/4
# P/# T (protected/tested) (male Swiss-Webster mice [2]; 0.5 hours): 1/4
# P/# T (protected/tested) (male Swiss-Webster mice [2]; 1 hour): 2/4
# P/# T (protected/tested) (male Swiss-Webster mice [2]; 2 hours): 3/4
# P/# T (protected/tested) (male Swiss-Webster mice [2]; 4 hours): 3/4

CC1(C)C[C@@H]1C(N)=O [Compound S, (S)-(+)-2,2-dimethylcyclopropanecarboxamide]
#Protected/#Tested 30 min ([3]; 30 mg/kg p.o., Table 1): no mice were protected and 0/4
#Protected/#Tested 120 min ([3]; 30 mg/kg p.o., Table 1): no mice were protected and 0/4
#Prot./#Tested at 15 min ([3]; 50 mg/kg p.o., Table 3): none of the mice were protected and 0/8
Seizure Score ± S.E.M. ([3]; 50 mg/kg p.o.): 5 ± 0
#Prot./#Tested at 15 min ([3]; 60 mg/kg p.o., Table 3): 5/8
mice protected ([3]; 60 mg/kg p.o., 15 minutes, Table 3): 62.5%
Seizure Score ± S.E.M. ([3]; 60 mg/kg p.o.): 2.1 ± 0.9
#Prot./#Tested at 15 min ([3]; 75 mg/kg p.o., Table 3): 7/8
mice protected ([3]; 75 mg/kg p.o., 15 minutes, Table 2): 75%
mice protected ([3]; 75 mg/kg p.o., 15 minutes, Table 3): 87.5%
Seizure Score ± S.E.M. ([3]; 75 mg/kg p.o.): 1.1 ± 0.6
# Prot./# Tested ([3]; 75 mg/kg p.o., ¼ hr, Table 2): ¾
# Prot./# Tested ([3]; 75 mg/kg p.o., ½ hr, Table 2): no mice were protected and 0/4
#Prot./#Tested at 15 min ([3]; 100 mg/kg p.o., Table 3): 6/8
mice protected ([3]; 100 mg/kg p.o., 15 minutes, Table 2): 75%
mice protected ([3]; 100 mg/kg p.o., 15 minutes, Table 3): 75%
#Protected/#Tested 30 min ([3]; 100 mg/kg p.o., Table 1): 3/4
mice protected ([3]; 100 mg/kg p.o., 30 minutes, Table 1): 75%
mice protected ([3]; 100 mg/kg p.o., 30 minutes, Table 2): 75%
# Prot./# Tested ([3]; 100 mg/kg p.o., 1 hr, Table 2): no mice were protected and 0/4
#Protected/#Tested 120 min ([3]; 100 mg/kg p.o., Table 1): 1/4
# Prot./# Tested ([3]; 100 mg/kg p.o., 2 hrs, Table 2): 1 mouse was protected and 1/4
mice protected ([3]; 100 mg/kg p.o., 120 minutes, Table 1): 25%
Seizure Score ± S.E.M. ([3]; 100 mg/kg p.o.): 1.6 ± 0.8
# Prot./# Tested ([3]; 100 mg/kg p.o., ¼ hr, Table 2): ¾
# Prot./# Tested ([3]; 100 mg/kg p.o., ½ hr, Table 2): 3/4
#Prot./#Tested at 15 min ([3]; 200 mg/kg p.o., Table 3): all the mice were protected and 8/8
Seizure Score ± S.E.M. ([3]; 200 mg/kg p.o.): 0.1 ± 0.1
#Protected/#Tested 30 min ([3]; 300 mg/kg p.o., Table 1): all of the tested mice were protected and 4/4
#Protected/#Tested 120 min ([3]; 300 mg/kg p.o., Table 1): all of the tested mice were protected and 4/4
average seizure score with dose ([3]; 50-200 mg/kg p.o., Table 3): generally decreased with increasing doses
ED50 ([3]; 0.25 h, p.o., tested at 15 min, 95% confidence interval 50.16-78.92, read-out: ED50 for protection against tonic extension): 64.9 mg/kg
ED50 ([3]; Table 4, read-out: ED50): 64.8 mg/kg
time at which anticonvulsant activity was observed ([3]; after oral administration): as early as 15 minutes and up to 2 hours
anticonvulsant activity (summary) ([3]; p.o.): demonstrated activity as an anticonvulsant
# I/# T (impaired/tested) (male Swiss-Webster mice [1]; 0.25 hours): 0/8
# I/# T (impaired/tested) (male Swiss-Webster mice [1]; 0.5 hours): 1/8
# I/# T (impaired/tested) (male Swiss-Webster mice [1]; 1 hour): 1/8
# I/# T (impaired/tested) (male Swiss-Webster mice [1]; 2 hours): 0/4
# I/# T (impaired/tested) (male Swiss-Webster mice [1]; 4 hours): 0/4
# P/# T (protected/tested) (male Swiss-Webster mice [2]; 0.25 hours): 0/8
# P/# T (protected/tested) (male Swiss-Webster mice [2]; 0.5 hours): 0/8
# P/# T (protected/tested) (male Swiss-Webster mice [2]; 1 hour): 1/8
# P/# T (protected/tested) (male Swiss-Webster mice [2]; 2 hours): 0/4
# P/# T (protected/tested) (male Swiss-Webster mice [2]; 4 hours): 0/4
#Toxic/#Tested 30 min (Frings mice; 30 mg/kg p.o., rotarod): 0/4
#Toxic/#Tested 120 min (Frings mice; 30 mg/kg p.o., rotarod): 0/4
#Toxic/#Tested 30 min (Frings mice; 100 mg/kg p.o., rotarod): 0/4
#Toxic/#Tested 120 min (Frings mice; 100 mg/kg p.o., rotarod): 0/4
#Toxic/#Tested 30 min (Frings mice; 300 mg/kg p.o., rotarod): 0/4
#Toxic/#Tested 120 min (Frings mice; 300 mg/kg p.o., rotarod): 0/4
#Toxic/#Tested at 15 min (Frings mice; 600 mg/kg p.o., 15 min, rotarod): 1/8
mice with a toxic response (Frings mice; 600 mg/kg p.o., 15 minutes, rotarod): 12.5%
separation between efficacy and CNS toxicity (Frings mice; p.o.): 10 fold
toxic responses on the rotarod (Frings mice; doses of Table 1 (30, 100, 300 mg/kg p.o.), 30 or 120 minutes): none of the doses produced toxic responses
separation between activity and toxicity (summary) (Frings mice; p.o.): good separation between activity and toxicity
toxicity (summary) (Frings mice; p.o., rotarod): low toxicity
TD50 at 15 min [4]: > 600 mg/kg

C[C@H]1CC[C@H](C(N)=O)CC1 [Compound W, trans-4-methylcyclohexanecarboxamide]
ED50 [3, 6]: 164 mg/kg
ED50 Oral Administration (male Swiss-Webster mice [2]; p.o., at time to peak effect, MES): Inactive at 300 mg/kg
Therapeutic Index (Frings mice): >4-fold

CC1CCC(CC(N)=O)CC1 (stereo not drawn) [Compound X, 2-(4-methylcyclohexyl)acetamide]
ED50 [3, 6]: 86.4 mg/kg
Therapeutic Index (Frings mice): >6-fold

CC(C)CC(N)=O [Isovaleramide, isovaleramide]
ED50 ([3]; Table 4, read-out: ED50): 206 mg/kg
half-life ([5]; oral, doses ranging from 100 mg to 1600 mg): about 2.5 hours
absorption ([5]; orally administered): readily absorbed from the gastrointestinal tract
ED50 (male Swiss-Webster mice [2]; Mus musculus, po, at time to peak effect, MES, read-out: ED50 Oral Administration): 913 mg/kg
separation between efficacy and CNS toxicity (Frings mice; p.o.): 5 fold
